This assay concerns the target T1, thyroid hormone receptor β (TRβ) (Homo sapiens, UniProt P10828).
T1 construct: gene THRB
Nature of the assay: biochemical.

Structures are written as SMILES.

T1 sequence (P10828 whole entry): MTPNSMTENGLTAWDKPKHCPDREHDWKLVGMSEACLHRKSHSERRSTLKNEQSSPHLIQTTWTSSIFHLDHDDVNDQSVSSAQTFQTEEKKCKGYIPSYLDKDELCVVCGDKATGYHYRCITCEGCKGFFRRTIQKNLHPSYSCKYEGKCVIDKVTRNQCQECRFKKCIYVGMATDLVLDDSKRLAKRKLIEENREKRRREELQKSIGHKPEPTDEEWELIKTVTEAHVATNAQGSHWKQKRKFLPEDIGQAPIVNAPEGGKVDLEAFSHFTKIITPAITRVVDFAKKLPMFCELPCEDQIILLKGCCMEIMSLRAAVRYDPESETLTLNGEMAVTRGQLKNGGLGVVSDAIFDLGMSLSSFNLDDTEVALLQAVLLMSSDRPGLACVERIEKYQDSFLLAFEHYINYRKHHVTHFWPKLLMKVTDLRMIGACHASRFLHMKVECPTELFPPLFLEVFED

In turn, `Cc1cc(OCC(=O)O)cc(C)c1Cc1cc(C#Cc2ccc([N+](=O)[O-])cc2)c(O)c(C(C)C)c1` [NH-3] returned a Ki of 1.31 nM. In other words, the single-digit nanomolar range.

Usually Ki stands for the equilibrium dissociation constant of an inhibitor or competing ligand from its target.

Source of the values: publication PMC12523147, “Thyroid hormone receptor beta signaling is a targetable driver of prostate cancer growth” (Molecular Cancer, 2025).
